Earlier results as cited in US20250177316A1, “Delayed-Release Granulates of Melatonin, Combinations Comprising Melatonin, Pharmaceutical Compositions and Dietary Supplements Containing Them, and Their Use in the Treatment of Insomnia and for the Reduction of the Time Required to Fall Asleep” (S.I.I.T. S.R.L. - SERVIZIO INTERNAZIONALE IMBALLAGGI …, priority 2022, published 2025).

SMILES | pH of 5% solution in water
CC(O)C(=O)[O-].CC(O)C(=O)[O-].[Ca+2] (centres unmarked) [calcium lactate] | 6-8
CC(O)C(=O)[O-].CC(O)C(=O)[O-].[Mg+2] (centres unmarked) [magnesium lactate] | 6.5-8.5
